Key:
[1] = test system: PEG-K103C: recombinant urate oxidase (uricase, PBC, SEQ ID NO: 1) mutant K103C, PEG-modified (mPEG-MAL, approximately 20 kD); assay: Determination of Michaelis constant of PEG-modified K103C (uric acid oxidation, UV absorbance at 290 nm); assay type: biochemical; conditions: substrate uric acid, after PEG modification
Description: (§1) The activity of uricase was detected by UV spectrophotometry, enzymatic reaction rate was detected by measuring the decrease in absorbance at 290 nm caused by the oxidation of uric acid to allantoin. The enzyme activity unit is defined as follows: at 37° C., pH 8.5, the amount of uricase needed to catalyze the decomposition of 1 μmol of uric acid per minute is defined as 1 enzyme activity unit. The efficacy of uricase is represented as the activity unit of protein per mg (U/mg). […] Therefore, the oxidation of 1 μM uric acid in the reaction caused the reduction of absorbance by 12.04 mAu. The absorbance is derived from the linear part as the changes of the uric acid concentration. Wherein the calculation formula of enzyme activity is shown as follows: Enzyme activity (U/ml)=(ODb−ODt)*Vt*df/12.04*1.0*Vs*t
(§2) (Odb: the absorbance value in a blank control tube; Odt: the absorbance value in a detection tube; Vt: the total reaction volume, 1.28 ml; df: the dilution fold before sample addition to the system; Vs: the total volume after adding the test sample of uricase, 0.2 ml; t: the reaction time, 5 min; 12.04: the molar extinction coefficient of the substrate, uric acid under the test conditions; 1.0: optical path of cuvette, 1.0 cm) Enzyme activity (U/mg)=(U/ml)/C
(§3) (1) 1 mL of uric acid working solution was added to 2 EP tubes, respectively, marked as a reaction tube and a control tube, and subjected to the warm bath at 37° C. for 5 mins;
(§4) (2) Reaction tube: 200 μL of diluted enzyme solution was added at 37° C., and reacted for 5 min; control tube: no treatment at 37° C. and reacted for 5 min;
(§5) (3) Reaction tube: 80 μL, 20% of KOH was added to quench the reaction; control tube: after 80 μL, 20% of KOH was added to quench the reaction, 200 μL of diluted enzyme solution was added;
(4) UV absorption wavelength was determined at 290 nm. […]
(§6) By comparing Michaelis constant, the maximum enzymatic reaction rate and the catalytic constant of the mutant K103C before and after PEG modification, the effect of PEG modification on mutant uricase was evaluated.

[2] = test system: recombinant urate oxidase K103C (uricase, PBC, SEQ ID NO: 1, mutant K103C), unmodified; assay: Determination of Michaelis constant of unmodified K103C (uric acid oxidation, UV absorbance at 290 nm); assay type: biochemical; conditions: substrate uric acid, before PEG modification
Description: as §1, §2, §3, §4, §5
(4) UV absorption wavelength was determined at 290 nm.
as §6

With `O=c1[nH]c(=O)c2[nH]c(=O)[nH]c2[nH]1` [uric acid] the Km [1] was 10.8 µM, the Vmax [1] was 1.823 µM/min and the kcat [1] was 743.78 min⁻¹. The Km [2] was 11.4 µM, the Vmax [2] was 2.333 µM/min and the kcat [2] was 951.84 min⁻¹.
